Measured values as given in patent EP0680339B1, “ECTOPARASITICIDAL FORMULATION” (priority 1993, dated 1994).

Assays:
sheep body louse D. ovis = experiment: Example 3, varying concentration of active: lice counts on sheep; assay type: in vivo, Damalinia ovis
Procedure: Testing for ectoparasite infestation was carried out by counting the number of parasites present in 20 partings taken on each side of the sheep (40 partings in total).
In order to determine the minimum effective concentration of active agent possible upon application of 150 mL/50 kg sheep, the following formulations were prepared: […]
For each of Examples 3A-E, the treatments were applied immediately after shearing along the backline in 4-6 strips (depending on the volume to be applied. Details are as follows:
Treatments were applied using the NZ Protector dial-a-dose drench/pour-on gun.
Once treated, each group was penned separately in electrified paddocks where they were kept for the duration of the trial.
Lice counts were performed pre-shearing 7, 14, 21, 28, 35 and 42 days after treatment using the 20 partings per side technique.
Percentage reduction in lice counts was calculated using the change in lice counts for the control group as a correction factor, using the formula given in example 1.

[1] = Example 6, degree of translocation: diazinon levels in wool and skin scrapings; assay type: in vivo, sheep; settings: for DIAZINON (PPM) - WHOLE WOLL BELLY-LINE MEAN / DIAZINON (PPM) - WHOLE WOLL MIDLINE MEAN: Example 6 formulation, 3mL per kg
Procedure: A 3 year old merino was shorn, weighed and treated immediately with the diazinon spray-on. It had not received any insecticide treatment for 12 months. The sheep weighed 37 kg and was treated with 110mL of the product. A wide band was applied from high on the neck, behind the ears, to the butt of the tail at a dosage rate of 3mL per kg bodyweight.
The animal was hand restrained during treatment and placed under cover in a pen with mesh floor and sides for the duration of the trial.
During and after treatment, the sheep had no contact with other treated animals and was not exposed to any rain.
On advice from the State Chemistry Laboratory, Department of Agriculture, Victoria, approximately 2cm square scrapings of wool and skin were taken as follows:
The values (PPM diazinon) are reported on a whole wool basis.
The approximate concentration in wool grease can be calculated on the basis of the average wool grease content of the wool is 18.4% w/w ie., multiply the individual results by a factor of 5.4.

CCOP(=S)(OCC)Oc1cc(C)nc(C(C)C)n1 [Diazinon]
eradication of the sheep body louse D. ovis (sheep body louse D. ovis; 10 mg/kg (0.33% w/w)): failed to eradicate
eradication of the sheep body louse D. ovis (sheep body louse D. ovis; 15 mg/kg (0.5% w/w)): failed to eradicate
DIAZINON (PPM) - WHOLE WOLL (MEAN VALUES) BELLY-LINE LEFT ([1]; 1 day post treatment): 407 PPM
DIAZINON (PPM) - WHOLE WOLL (MEAN VALUES) BELLY-LINE RIGHT ([1]; 1 day post treatment): 190 PPM
DIAZINON (PPM) - WHOLE WOLL (MEAN VALUES) MIDLINE LEFT ([1]; 1 day post treatment): 808 PPM
DIAZINON (PPM) - WHOLE WOLL (MEAN VALUES) MIDLINE RIGHT ([1]; 1 day post treatment): 330 PPM
DIAZINON (PPM) - WHOLE WOLL BELLY-LINE MEAN ([1]; 1 day post treatment): 298 PPM
DIAZINON (PPM) - WHOLE WOLL MIDLINE MEAN ([1]; 1 day post treatment): 569 PPM
DIAZINON (PPM) - WHOLE WOLL (MEAN VALUES) BELLY-LINE LEFT ([1]; 3 days post treatment): 185 PPM
DIAZINON (PPM) - WHOLE WOLL (MEAN VALUES) BELLY-LINE RIGHT ([1]; 3 days post treatment): 112 PPM
DIAZINON (PPM) - WHOLE WOLL (MEAN VALUES) MIDLINE LEFT ([1]; 3 days post treatment): 496 PPM
DIAZINON (PPM) - WHOLE WOLL (MEAN VALUES) MIDLINE RIGHT ([1]; 3 days post treatment): 323 PPM
DIAZINON (PPM) - WHOLE WOLL BELLY-LINE MEAN ([1]; 3 days post treatment): 148.5 PPM
DIAZINON (PPM) - WHOLE WOLL MIDLINE MEAN ([1]; 3 days post treatment): 410 PPM
DIAZINON (PPM) - WHOLE WOLL (MEAN VALUES) BELLY-LINE LEFT ([1]; 7 days post treatment): 287 PPM
DIAZINON (PPM) - WHOLE WOLL (MEAN VALUES) BELLY-LINE RIGHT ([1]; 7 days post treatment): 216 PPM
DIAZINON (PPM) - WHOLE WOLL (MEAN VALUES) MIDLINE LEFT ([1]; 7 days post treatment): 503 PPM
DIAZINON (PPM) - WHOLE WOLL (MEAN VALUES) MIDLINE RIGHT ([1]; 7 days post treatment): 237 PPM
DIAZINON (PPM) - WHOLE WOLL BELLY-LINE MEAN ([1]; 7 days post treatment): 251.2 PPM
DIAZINON (PPM) - WHOLE WOLL MIDLINE MEAN ([1]; 7 days post treatment): 370 PPM
diazinon in whole wool, belly-line right rump ([1]; Day 1): 53 PPM
diazinon in the wool grease, belly-line right rump ([1]; Day 1, whole wool value multiplied by 5.4): 286 PPM
